# Laboratory results taken from patent publication US20100216761A1, “NOVEL AZETIDINONES USEFUL AS INHIBITORS OF ELASTASE” (priority 2007, published 2010).
# Experiments:
# [1] = biological target: T1, Human Leukocyte Elastase (HLE) (Homo sapiens, UniProt P08246); assay: HLE time-dependent inactivation assay, PMN cell lysate source of HLE; format: biochemical; conditions: 3 nM, inhibitor 26.5 nM, substrate 1 mM
# T1 construct: The PMN lysates were prepared by isolating human neutrophils from whole blood; from tissue; host or cells: human neutrophils (PMN) isolated from whole blood, lysed by sonication in PBS
# T1 sequence (P08246 30-267): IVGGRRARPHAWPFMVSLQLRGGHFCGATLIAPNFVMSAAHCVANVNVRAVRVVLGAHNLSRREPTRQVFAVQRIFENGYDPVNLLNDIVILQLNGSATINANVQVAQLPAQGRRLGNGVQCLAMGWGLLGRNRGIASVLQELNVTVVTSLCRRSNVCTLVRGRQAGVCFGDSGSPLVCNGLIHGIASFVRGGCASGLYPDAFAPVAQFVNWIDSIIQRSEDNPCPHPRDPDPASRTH
# Method: (§1) As exemplified in Table 1, the Examples 1-6 of this application were determined to be potent, mechanism-based inactivators of Human Leukocyte Elastase (HLE) in two different in vitro time-dependent incubation assays. The two assays are described at the end of this Biological Data Section in Note 1. See the literature references in Note 2 for a discussion of the mechanism for this type of beta-lactam inactivation of HLE. Two sources of enzyme were used; either purified elastase or crude extracts of human polymorphonuclear leukocytes (PMN) containing elastase activity. […] For the compound of Example 1, the results were 638,000 M^−1 sec^−1 (average of n=3) and 809,000 M^−1 sec^−1 (n=4), respectively, and for Example 3, 804,000 M^−1 sec^−1 (average of n=4) and 952,000 M^−1 sec^−1 (n=5). […] Note that in this assay, head-to-head comparisons are particularly valuable.
# (§2) Note 1: Enzyme Assays for the Inhibition of Human Polymorphonuclear Leukocyte Elastase Via Hydrolysis of N-Methyoxysuccinyl-alanyl-alanyl-prolylalanine-p-nitroanilide Reagent.
# (§3) Prepare substrate by first dissolving in DMSO to 30 mg/ml (50 mM). Further dilute the substrate to 10 mM and add 25 μl to a final volume of 250 μl for a final concentration of 1 mM in the assay.
# (§4) Prepare the enzyme in TES Buffer (0.045M TES (N-tris[hydroxymethyl]methyl-2-mino-ethanesulfonic acid), 0.45 M NaCl, pH 7.5.). Two sources of enzyme were used; either crude extracts of human polymorphonuclear leukocytes (PMN) containing elastase activity or purified elastase. The PMN lysates were prepared by isolating human neutrophils from whole blood after dextran sedimentation, ficoll density separation and red blood cell lysis. The neutrophils were lysed in PBS with sonciation and the concentration of active enzyme was determined by utilizing a standard curve of purified enzyme. For the purified elastase, the enzyme was resuspended at 10 mg/ml (˜340 μM) in 0.02M NaOAc, 50% glycerol. For both the PMN lysate and purified enzyme, a further dilution of enzyme was made to 30 nM and 25 μl was added to a final volume of 250 μl. The final concentration of enzyme in the assay was 3 nM.
# (§5) The inhibitors to be tested were dissolved in DMSO at 10 mM. Directly before use, the inhibitors were further diluted into TES Buffer to 265 nM and […] was added to a final volume of 250 μl. The final concentration of inhibitor in the assay was 26.5 nM.
# (§6) In a 96-well plate (flat bottom, polystyrene) 175 μl TES Buffer, 25 μl substrate, 25 μl inhibitor and 25 μl enzyme were added. After thoroughly mixing, the plate was then read in a spectrophotometer at 410 nm for 30 minutes counting every 10 seconds. Results were expressed as Kinact/Ki which is the second order rate constant in per mole per second for inactivation of the enzyme.
# [2] = Human liver microsome stability (Assays #1-#4); format: in vitro ADME; conditions: Assay #1, substrate 1 μM, protein 0.1 mg/mL, 37° C.; for half-life at 1 μM: human, liver microsomes
# Method: The results for Examples 1 and 3 were t112=87 and 32 minutes with 78% and 60% remaining after 30 minutes, respectively, compared to shorter half-lives and lesser amounts left for Examples 2 and 4-6 (see Note 6 for conditions).
# Under similar in vitro human liver microsome preparation stability assay conditions at 37° C. for 30 or 60 minutes in a separate head-to-head experiments (Assay #2 and #3) (see Note 6 for conditions) with Examples 1 and 3 and the comparator Compound #290 from U.S. Pat. No. 5,591,737, the amounts left after the 30 minute incubation (with […] microsome protein vs 0.1 mg/mL for Assay #3) were 67, 99 and 79% and for the 60 minute incubation were 94, 73 and 77%, respectively. Similarly, in a third repeat assay (Assay #4 with—NADPH controls) (see Note 6 for conditions), 90 and 72% were remaining for Example 1 and the comparator compound, respectively. […]
# Note 6: Human Liver Microsome Assay # 1-3 conditions. • Assay experiment #1: Substrate concentration=1 μM; Protein concentration=0.1 mg/mL; incubation time=30 minutes at 37° C. • Assay experiment #2: Substrate concentration=1 μM; Protein concentration 0.1 mg/mL; incubation time=30 minutes at 37° C. • Assay experiment #3: Substrate concentration=1 μM; Protein concentration=0.1 mg/mL; incubation time=60 minutes at 37° C. • Assay experiment #4: Substrate concentration=1 μM; Protein concentration=1.0 mg/mL; incubation time=60 minutes at 37° C.
# [3] = biological target: T1, Human Leukocyte Elastase (HLE); assay: HLE time-dependent inactivation assay, purified elastase; format: biochemical; conditions: purified elastase 3 nM; inhibitor 26.5 nM; substrate 1 mM
# Method: as §1, §2, §3, §4, §5, §6
kinact/KI [1] [M⁻¹ s⁻¹],% Left @ 30 min [2] [%],half-life at 1 μM [2] [min],kinact/KI [3] [M⁻¹ s⁻¹],Structure (SMILES)
427000,51,25,290000,"CCC[C@@H](NC(=O)N1C(=O)C(CC)(CC)[C@@H]1Oc1ccc(C(=O)N(C)CCN(C)C)cc1)c1ccc(C(F)(F)F)cc1 [Example 4, 2-(S)-[4-(((2-(Dimethylamino)ethyl)methylamino)carbonyl)phenoxy]-3,3-diethyl-N-[1-(R)-(4-(trifluoromethyl)phenyl)butyl]-4-oxo-1-azetidinecarboxamide]"
375000,31,30,–,"CCC[C@@H](NC(=O)N1C(=O)C(CC)(CC)[C@@H]1Oc1ccc(C(=O)N(CC)CCN(CC)CC)cc1)c1ccc(C(F)(F)F)cc1 [Example 5, 2-(S)-[4-(((2-(Diethylamino)ethyl)ethylamino)carbonyl)phenoxy]-3,3-diethyl-N-[1-(R)-(4-(trifluoromethyl)phenyl)butyl]-4-oxo-1-azetidinecarboxamide]"
